Experimental findings from paper PMC3549034 (Cancer research, 2012) are described below.

For the test, the target named is Aurora B (Homo sapiens, UniProt Q96GD4). In kind it is biochemical.
Chain of Aurora B (Q96GD4 whole entry): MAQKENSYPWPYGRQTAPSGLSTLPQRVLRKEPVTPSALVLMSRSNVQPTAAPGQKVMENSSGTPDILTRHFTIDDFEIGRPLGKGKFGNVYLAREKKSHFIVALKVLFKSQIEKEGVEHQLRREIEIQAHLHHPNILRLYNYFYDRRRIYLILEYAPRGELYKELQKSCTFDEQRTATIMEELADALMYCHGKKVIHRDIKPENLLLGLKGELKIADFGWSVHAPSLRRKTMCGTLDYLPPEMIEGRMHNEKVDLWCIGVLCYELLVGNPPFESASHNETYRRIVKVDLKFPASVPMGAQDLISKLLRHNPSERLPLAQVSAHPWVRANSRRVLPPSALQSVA

As usually defined, the IC50 is the concentration needed to halve the response being measured. Low values mean higher potency, high ones lower potency. For `O=C(/C=C/c1ccc2c(c1)OCO2)/C=C1/C(=O)Nc2ccccc21` [HOI-07, (E)-3-((E)-4-(benzo[d][1,3]dioxol-5-yl)-2-oxobut-3-en-1-ylidene)indolin-2-one], the IC50 was around 100 nM.
